The values that follow come from patent US9085761B1, “Methods and compositions for amplification of nucleic acids” (Affymetrix, Inc., priority 2012, dated 2015).

The target of one data set is T1, Taq DNA Polymerase (Thermus aquaticus, UniProt P19821).
T1 construct: made in house
The experiment in a line: PCR amplification of a 455 bp human numb target with Taq DNA Polymerase in the presence of surfactant, product seen on agarose gel. The data set is classed as biochemical. As to conditions: for PCR product of the expected size: FIG. 1, diluted Taq with 0.00011% Tween-20 and NP-40 carry-over; for Function: Table 1 summary: surfactants or blocked co-polymers that worked in the assay used and those that did not. Here is the method:
In order to test the efficacy of detergents on Taq DNA Polymerase, a stock of Taq DNA Polymerase at a base concentration of 111 units/ul was diluted to 5 units/ul in a storage buffer that lacked detergents. The standard Taq DNA Polymerase storage buffer has 0.5% Tween-20 and 0.5% NP-40. In this example 0.625 units of Taq were added per 25 ul reaction, so that represents a change in final detergent concentration of 0.0025% each detergent to 0.00011% of each. A 455 bp single-copy target from the human numb gene was PCR-amplified from 1 ng human genomic DNA in a 25 ul reaction with 0.625 units of the diluted Taq DNA polymerase. The cycling conditions were 95° C. for 2 minutes; 35 cycles of 95° C. for 10 seconds, 55° C. for 20 seconds, and 72° C. for 30 seconds; 72° C. for 5 minutes; and 10° C. until required. An aliquot of 10 ul was run on a 1.5% agarose/ethidium bromide gel.
In FIG. 1, the results of the initial screen of several non-ionic and zwitterionic detergents are shown. In this example there is residual Tween-20 and NP-40 in the enzyme storage buffer. The concentrations of surfactants listed are the final concentration of that surfactant in the assay. All conditions in the example, including the “no detergent” condition, have 0.00011% Tween-20 and 0.00011% NP-40 resulting from carry-over from the enzyme storage buffer. […] As expected Tween-20 and NP-40 worked when present at 0.01% and 0.1%. […] A0-12-2 worked at 0.01% and PEO(10)SAP worked at 0.01, 0.1 and 1%. It is clear that in addition to the standard non-ionic detergents with PEOn, a zwitterionic or ylide with that polymer will also contribute to PCR product generation.
Because a small amount of Tween-20 and NP-40 was carried over in the previous experiment, Taq DNA Polymerase was purified without the addition of detergents after the lysis step to provide a “detergent-free” Taq for use in the next example. The previous numb target and reaction conditions were used with 0.625 units of Taq per reaction.
To further test the effectiveness of PEOn-derivatives, the denaturation temperature was changed from 95° C. to 98° C. in the cycling protocol. This increase in temperature adds additional stress to the function of Taq DNA Polymerase. A selection of PLURONIC® and TETRONIC® surfactants were tested (labels in the figures are abbreviated, for example, “T908” refers to TETRONIC® 908 and “P F87” refers to PLURONIC® F87). In addition, TETRONIC® 904 and 1107 were modified to amine-oxide, forms and then tested.

A short description of data set [1]: Cloud point of surfactant. The data set is classed as physicochemical. To be noted: about 1% detergent concentration in 6×SSPE buffer. Here is the method: In some aspects surfactants are selected for use in the methods because they have a cloud point (temperature at which the solid begins to precipitate and give the fluid a cloudy appearance) greater than or equal to 80° C., greater than or equal to 90° C. and in particularly preferred aspects the cloud point is greater than about 100° C. (in each case when measured at about 1% aqueous). The cloud point is the temperature above which a surfactant solution separates into a detergent rich phase and a detergent poor phase (see, Rosen et al. Surfactants and interfacial Phenomena, ^3rd ed. 2004, Hoboken; John Wiley & Sons, Inc. and Neugebauer, J. M. Detergents: an overview, Methods Enzymol, 1990, 182, p. 239-53). The separation is visualized as turbidity within the solution. An increase in temperature favors micelle formation; the rapid growth of micelles along with intermicellar attraction likely results in the formation of large particles that can precipitate out of solution, thus causing turbidity. This phase separation is reversible upon cooling. […]
The amine oxide detergents of the present invention have higher cloud points than their non-amine oxide counterparts. For example, PEO(10)stearlyamine has a cloud point of 60° C. compared to PEO(10)stearylamine N-oxide's cloud point of greater than 100° C., in both cases when measured at about 1% detergent concentration in 6×SSPE buffer. […]

Data set [2] relates to thermostable DNA polymerase. The experiment in a line: Evaluation of protecting groups for reversible modification (hot-start inactivation) of thermostable polymerase. The data set is classed as biochemical. As to conditions: reactivity tested in Tris pH 8 or Tricine pH 8.8. Here is the method: Three classes of protecting groups were evaluated: 2,3-substituted maleic anhybrides, alpha-activated compounds that can undergo beta-elimination and molecules that can undergo intramolecular cyclic displacement or assisted elimination. The experimental compounds had the general structure:
Where Y could be N-hydroxysuccinimide (NHS), p-nitrophenol (pNP), or imidazole and X could be CONMe2, MeSO2, CN, NO2, CO2Me, (CH2)2SMe, N(CH3)CHO, or CH2C(O)CH3. The reactivity was tested in Tris pH 8 or Tricine pH 8.8. Buffer pH measurements are at room temperature (˜25° C.). […]

T1 sequence (P19821 whole entry): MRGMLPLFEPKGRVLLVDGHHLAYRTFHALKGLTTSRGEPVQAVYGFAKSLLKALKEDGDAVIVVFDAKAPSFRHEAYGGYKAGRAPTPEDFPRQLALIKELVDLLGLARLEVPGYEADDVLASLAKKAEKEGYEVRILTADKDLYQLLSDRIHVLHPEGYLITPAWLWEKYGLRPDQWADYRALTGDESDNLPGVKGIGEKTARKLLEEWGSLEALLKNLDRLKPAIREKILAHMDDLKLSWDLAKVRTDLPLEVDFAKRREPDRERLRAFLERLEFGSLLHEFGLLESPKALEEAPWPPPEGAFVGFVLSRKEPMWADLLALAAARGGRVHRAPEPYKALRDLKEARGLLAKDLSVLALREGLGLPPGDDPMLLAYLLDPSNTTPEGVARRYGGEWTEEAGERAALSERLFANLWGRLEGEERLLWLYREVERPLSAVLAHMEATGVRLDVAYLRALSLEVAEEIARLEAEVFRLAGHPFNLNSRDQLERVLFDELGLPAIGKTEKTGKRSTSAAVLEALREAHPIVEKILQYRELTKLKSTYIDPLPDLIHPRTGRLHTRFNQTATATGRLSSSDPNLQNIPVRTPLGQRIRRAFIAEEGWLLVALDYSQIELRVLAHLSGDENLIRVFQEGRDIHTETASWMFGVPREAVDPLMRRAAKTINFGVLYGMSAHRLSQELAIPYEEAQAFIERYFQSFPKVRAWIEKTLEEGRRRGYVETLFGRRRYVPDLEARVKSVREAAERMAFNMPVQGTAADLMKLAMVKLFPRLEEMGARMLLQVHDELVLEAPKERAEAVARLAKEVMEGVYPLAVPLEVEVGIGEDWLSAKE

Consider “Polyethoxylated (10) Stearylamine N-Oxide [PE0 (10) SAO]”, for which the “PCR product of the expected size” value at Taq DNA Polymerase (0.01% surfactant final), on Taq DNA Polymerase (0.1% surfactant final) and at Taq DNA Polymerase (1% surfactant final) was “worked” each time. In addition, the Function result at Taq DNA Polymerase is “YES”. Moreover, at Taq DNA Polymerase (detergent-free Taq DNA Polymerase, FIG. 2, 3, 4), the PCR product entry is “PCR product was observed”. The cloud point entry in data set [1] was “greater than 100 °C”.

Take “Polyethoxylated/Polypropoxylated (isodecyloxypropyl)amine N-Oxide [AO-405]”: the “PCR product of the expected size” value on Taq DNA Polymerase (concentration not given) is “no visible product”.

As to `CS(=O)(=O)CCOC(=O)Oc1ccc([N+](=O)[O-])cc1` [MSEC, 2-(Methylsulfonyl)ethyl 4-nitrophenyl carbonate], the “effectiveness as reversible modifier of polymerase” value in data set [2] was “most effective”.

In the case of “PEO(10) Stearyl (3-sulfo-propyl)-ammonium [PEO(10) SAPS]”, on Taq DNA Polymerase, the Function result was “YES”.

For NP 40 [reference compound], the “PCR product of the expected size” value on Taq DNA Polymerase (0.01% surfactant final) and on Taq DNA Polymerase (0.1% surfactant final) was “worked” each time. Besides, the Function entry at Taq DNA Polymerase is given as “YES”.

`CCCCCCCCCCCC[N+]([O-])(CCO)CCO` [AO-12-2, N,N-Bis(2-hydroxyethyl)laurylamine N-Oxide]: the “PCR product of the expected size” value at Taq DNA Polymerase (0.01% surfactant final) is “resulted in a product”; at Taq DNA Polymerase (0.01% surfactant final, listed as A0-12-2), “worked”; at Taq DNA Polymerase (0.1% surfactant final) it was “not”; on Taq DNA Polymerase (1% surfactant final) it was “not”.
